Source: patent US20040023853A1, “Antagonistic peptides of prostaglandin E2 receptor subtype EP4” (priority 2002, published 2004)
≈ marks a conversion by molar mass, not a printed value. Non-standard residues stand in square brackets, D forms with d. Residues, ends and D or L forms follow the SMILES beside them. Bip = N[C@@H](Cc1ccc(-c2ccccc2)cc1)C(=O)O; dBip = N[C@H](Cc1ccc(-c2ccccc2)cc1)C(=O)O

system: rat model of ischemic nephropathy; experiment: Rat model of ischemic nephropathy (bilateral renal artery occlusion): GFR, urine flow, renal plasma flow, BUN/creatinine, histology; assay type: in vivo, Sprague-Dawley rats; settings: 213.29 1 mg/kg iv bolus; fenoldopam 0.6 μg/kg iv bolus then 0.6 μg/kg/h
Description: Bilateral clamping of the renal arteries for 30-60 minutes results in the […] of the kidneys and associated sequelae such as a dramatic decrease in glomerular filtration rate, urine output and tubular cell death. This model reproduces some important consequences of oligouric renal failure in humans. The efficacy of various 213.15 derivatives in reversing the renal damage was measured.
Sprague-Dawley rats (250-300 g) were anesthetized and the jugular vein was canulated for infusion with the peptide or with saline. In addition, the carotid artery was canulated to measure the arterial blood pressure with a pressure transducer (Gould) and to collect blood samples. The urinary bladder was canulated to collect urine. After catheterization, an infusion (1.6 ml/hr) of a mixture of [^3H] inulin (8 μCi/hr), [^14C] aminohippuric acid (0.8 μCi/hr) and anesthetics (ketamine and xylazine; 9:1 w:w; 0.095 ml/ml) was started. The animals were allowed to stabilize for a further 40 minutes. Two urine samples were collected over 10 minute periods, (from 40 to 50 minutes, and from 50 to 60 minutes) to assess the stability of the basal GFR. Blood samples were collected at 45 and 55 minutes respectively. The left and right renal arteries were then clamped for a period of 60 minutes to induce an acute renal ischemia. After the ischemic period, the animals were treated with peptides, 213.19-213.30, (1 mg/kg iv bolus) or with saline via the jugular vein. Blood and urine samples were then collected every 20 minutes for an additional period of 2 hours. Glomerular filtration rates (GFR) and urine flow rates, (measured by the [^3H] inulin method) as well as renal plasma flow (measured by the [^14C] aminohippuric acid method), were determined at different times and averaged for a 60 minute (20-80 minutes following the drug administration) period.
The efficacy of fenoldopam and 213.29, in improving kidney function in the rat model of ischemic nephropathy (described in Example 2) was compared. […]

| Compound | renal perfusion and GFR | urine output |
| --- | --- | --- |
| Oc1ccc(C2CNCCc3c2cc(O)c(O)c3Cl)cc1 (centres unmarked) [fenoldopam, Fenoldopam] | only 213.29 was able to improve renal perfusion and GFR significantly | increased urine output to a similar extent |

same assay, conditions: after 72 hours; 213.29 1 mg/kg iv bolus; fenoldopam 0.6 μg/kg bolus then 0.6 μg/kg/h

| Compound | blood urea nitrogen (BUN) and serum creatinine levels |
| --- | --- |
| Oc1ccc(C2CNCCc3c2cc(O)c(O)c3Cl)cc1 (centres unmarked) [fenoldopam, Fenoldopam] | equally efficacious in reducing BUN and creatinine levels |

system: not listed separately; experiment: Solubility of the peptides in water; assay type: physicochemical; settings: not given
Description: Several peptides, based on the structure of 213.15 (SEQ ID NO: 1), were synthesized using F-moc chemistry and the solid phase Merrifield peptide method. The purity of the trifluoroacetate salts of these peptides was assessed by HPLC and mass spectroscopy. The general synthesis methods will be better understood by referring to the following treatises: “Solid phase peptide synthesis”, Stewart & Young, W. H. Freeman Co. San Francisco, 1969; “The proteins”, Erikson and Merrifield, Vol. 2. (ed. Neurath & Hill), Academic Press, New York. 1976.

| solubility (in words) | Compound |
| --- | --- |
| poor solubility | CC(C)C[C@@H](NC(=O)[C@@H](C)NC(=O)[C@@H](CCC(=O)O)NC(=O)[C@@H](Cc1ccc(O)cc1)NC(=O)[C@@H](CCC(=O)O)NC(=O)[C@@H](CO)NC(=O)[C@H](NC(=O)[C@H](N)Cc1ccc(-c2ccccc2)cc1)[C@H](C)O)C(=O)O [Peptide 213.15, (bip)tseyeal] (H-[dBip][dT][dS][dE][dY][dE][dA][dL]-OH; N-terminus and C-terminus assumed) |

same assay, conditions: determined in water

| Compound | solubility |
| --- | --- |
| C[C@H](O)[C@@H](NC(=O)[C@H](N)Cc1ccc(-c2ccccc2)cc1)C(=O)N[C@H](CO)C(=O)N[C@H](CCC(=O)O)C(=O)N[C@H](Cc1ccc(O)cc1)C(=O)N[C@H](CCC(=O)O)C(=O)N[C@H](CO)C(=O)N[C@@H](CCCCN)C(=O)O [Peptide 213.26, (bip)tseyesK] (H-[dBip][dT][dS][dE][dY][dE][dS]K-OH; N-terminus and C-terminus assumed) | 8 mg/mL (≈ 7.5 mM) |
| CC(C)C[C@H](NC(=O)[C@@H](C)NC(=O)[C@@H](CCC(=O)O)NC(=O)[C@@H](Cc1ccc(O)cc1)NC(=O)[C@@H](CCC(=O)O)NC(=O)[C@@H](CO)NC(=O)[C@H](NC(=O)[C@H](N)Cc1ccc(-c2ccccc2)cc1)[C@H](C)O)C(=O)N[C@@H](CCCCN)C(=O)N[C@@H](CCCCN)C(=O)O [Peptide 213.28, (bip)tseyeaLKK] (H-[dBip][dT][dS][dE][dY][dE][dA]LKK-OH; N-terminus and C-terminus assumed) | 20 mg/mL (≈ 15.5 mM) |
| CC(C)C[C@@H](NC(=O)CNC(=O)[C@@H](CCC(=O)O)NC(=O)[C@@H](Cc1ccc(O)cc1)NC(=O)[C@@H](CCC(=O)O)NC(=O)[C@@H](CO)NC(=O)[C@H](NC(=O)[C@H](N)Cc1ccc(-c2ccccc2)cc1)[C@H](C)O)C(=O)N[C@@H](CCCCN)C(=O)N[C@@H](CCCCN)C(=O)O [Peptide 213.22, (bip)tseyeglKK] (H-[dBip][dT][dS][dE][dY][dE]G[dL]KK-OH; N-terminus and C-terminus assumed) | 24.5 mg/mL (≈ 19.2 mM) |
| CC(C)C[C@@H](NC(=O)[C@@H](C)NC(=O)[C@@H](CCC(=O)O)NC(=O)[C@@H](Cc1ccc(O)cc1)NC(=O)[C@@H](CCC(=O)O)NC(=O)[C@@H](CO)NC(=O)[C@H](NC(=O)[C@H](N)Cc1ccc(-c2ccccc2)cc1)[C@H](C)O)C(=O)O [Peptide 213.15, (bip)tseyeal] (H-[dBip][dT][dS][dE][dY][dE][dA][dL]-OH; N-terminus and C-terminus assumed) | 0.2 mg/mL (≈ 0.193 mM) |
| CC(C)C[C@@H](NC(=O)[C@@H](CO)NC(=O)[C@@H](CCC(=O)O)NC(=O)[C@@H](Cc1ccc(O)cc1)NC(=O)[C@@H](CCC(=O)O)NC(=O)[C@@H](CO)NC(=O)[C@H](NC(=O)[C@H](N)Cc1ccc(-c2ccccc2)cc1)[C@H](C)O)C(=O)N[C@@H](CCCCN)C(=O)N[C@@H](CCCCN)C(=O)O [Peptide 213.24, (bip)tseyeslKK] (H-[dBip][dT][dS][dE][dY][dE][dS][dL]KK-OH; N-terminus and C-terminus assumed) | 23.5 mg/mL (≈ 18 mM) |
| CC(C)C[C@@H](NC(=O)[C@@H](C)NC(=O)[C@@H](CCC(=O)O)NC(=O)[C@@H](Cc1ccc(O)cc1)NC(=O)[C@@H](CCC(=O)O)NC(=O)[C@@H](CO)NC(=O)[C@H](NC(=O)[C@H](N)Cc1ccc(-c2ccccc2)cc1)[C@H](C)O)C(=O)NCC(=O)N[C@@H](CCCCN)C(=O)N[C@@H](CCCCN)C(=O)O [Peptide 213.30, (bip)tseyealGKK] (H-[dBip][dT][dS][dE][dY][dE][dA][dL]GKK-OH; N-terminus and C-terminus assumed) | 16 mg/mL (≈ 11.9 mM) |

Continued, values first:

| solubility | Compound |
| --- | --- |
| 6 mg/mL (≈ 5.71 mM) | C[C@H](O)[C@@H](NC(=O)[C@H](N)Cc1ccc(-c2ccccc2)cc1)C(=O)N[C@H](CO)C(=O)N[C@H](CCC(=O)O)C(=O)N[C@H](Cc1ccc(O)cc1)C(=O)N[C@H](CCC(=O)O)C(=O)N[C@H](C)C(=O)N[C@@H](CCCCN)C(=O)O [Peptide 213.25, (bip)tseyeaK] (H-[dBip][dT][dS][dE][dY][dE][dA]K-OH; N-terminus and C-terminus assumed) |
| 1.15 mg/mL (≈ 1 mM) | CC(C)C[C@@H](NC(=O)CNC(=O)[C@@H](CCC(=O)O)NC(=O)[C@@H](Cc1ccc(O)cc1)NC(=O)[C@@H](CCC(=O)O)NC(=O)[C@@H](CO)NC(=O)[C@H](NC(=O)[C@H](N)Cc1ccc(-c2ccccc2)cc1)[C@H](C)O)C(=O)N[C@@H](CCCCN)C(=O)O [Peptide 213.20, (bip)tseyeglK] (H-[dBip][dT][dS][dE][dY][dE]G[dL]K-OH; N-terminus and C-terminus assumed) |
| 24.5 mg/mL (≈ 19 mM) | CC(C)C[C@@H](NC(=O)[C@@H](C)NC(=O)[C@@H](CCC(=O)O)NC(=O)[C@@H](Cc1ccc(O)cc1)NC(=O)[C@@H](CCC(=O)O)NC(=O)[C@@H](CO)NC(=O)[C@H](NC(=O)[C@H](N)Cc1ccc(-c2ccccc2)cc1)[C@H](C)O)C(=O)N[C@@H](CCCCN)C(=O)N[C@@H](CCCCN)C(=O)O [Peptide 213.21, (bip)tseyealKK] (H-[dBip][dT][dS][dE][dY][dE][dA][dL]KK-OH; N-terminus and C-terminus assumed) |
| 23 mg/mL (≈ 17.8 mM) | CC(C)C[C@@H](NC(=O)[C@@H](C)NC(=O)[C@@H](CCC(=O)O)NC(=O)[C@@H](Cc1ccc(O)cc1)NC(=O)[C@@H](CCC(=O)O)NC(=O)[C@@H](CO)NC(=O)[C@H](NC(=O)[C@@H](N)Cc1ccc(-c2ccccc2)cc1)[C@H](C)O)C(=O)N[C@@H](CCCCN)C(=O)N[C@@H](CCCCN)C(=O)O [Peptide 213.27, (Bip)tseyealKK] (H-[Bip][dT][dS][dE][dY][dE][dA][dL]KK-OH; N-terminus and C-terminus assumed) |
| 15.6 mg/mL (≈ 12.1 mM) | CC(C)C[C@H](NC(=O)[C@@H](C)NC(=O)[C@@H](CCC(=O)O)NC(=O)[C@@H](Cc1ccc(O)cc1)NC(=O)[C@@H](CCC(=O)O)NC(=O)[C@@H](CO)NC(=O)[C@H](NC(=O)[C@@H](N)Cc1ccc(-c2ccccc2)cc1)[C@H](C)O)C(=O)N[C@@H](CCCCN)C(=O)N[C@@H](CCCCN)C(=O)O [Peptide 213.29, (Bip)tseyeaLKK] (H-[Bip][dT][dS][dE][dY][dE][dA]LKK-OH; N-terminus and C-terminus assumed) |
| 13 mg/mL (≈ 11 mM) | CC(C)C[C@@H](NC(=O)[C@@H](CO)NC(=O)[C@@H](CCC(=O)O)NC(=O)[C@@H](Cc1ccc(O)cc1)NC(=O)[C@@H](CCC(=O)O)NC(=O)[C@@H](CO)NC(=O)[C@H](NC(=O)[C@H](N)Cc1ccc(-c2ccccc2)cc1)[C@H](C)O)C(=O)N[C@@H](CCCCN)C(=O)O [Peptide 213.23, (bip)tseyeslK] (H-[dBip][dT][dS][dE][dY][dE][dS][dL]K-OH; N-terminus and C-terminus assumed) |
| 2.8 mg/mL (≈ 2.41 mM) | CC(C)C[C@@H](NC(=O)[C@@H](C)NC(=O)[C@@H](CCC(=O)O)NC(=O)[C@@H](Cc1ccc(O)cc1)NC(=O)[C@@H](CCC(=O)O)NC(=O)[C@@H](CO)NC(=O)[C@H](NC(=O)[C@H](N)Cc1ccc(-c2ccccc2)cc1)[C@H](C)O)C(=O)N[C@@H](CCCCN)C(=O)O [Peptide 213.19, (bip)tseyealK] (H-[dBip][dT][dS][dE][dY][dE][dA][dL]K-OH; N-terminus and C-terminus assumed) |
